Laboratory results: the supplement of paper PMC10307832

Legend:
Experiment in all cases: relative viability (nuclei count vs DMSO), 5 days (fraction); higher = more cells survive
NCI-H727 = tested on: NCI-H727
In short: (§1)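 Relative viability was taken as the ratio of nuclei in treated wells to nuclei in vehicle wells. Lung cancer cell lines in 1536-well plates received compounds by pin tool one day after seeding, either one drug alone or a fixed anchor-drug dose plus five library-drug doses (not always all listed) in √10 steps. Nuclei were counted on 4× images after 5 days of treatment, and values are medians of duplicate plates.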

NCI-H358 = tested on: NCI-H358
In short: as §1

NCI-H2405 = tested on: NCI-H2405
In short: as §1

H3255 = tested on: H3255
In short: as §1

NCI-H23 = tested on: NCI-H23
In short: as §1

NCI-H1666 = tested on: NCI-H1666
In short: as §1

NCI-H2347 = tested on: NCI-H2347
In short: as §1

NCI-H520 = tested on: NCI-H520
In short: as §1

NCI-H1437 = tested on: NCI-H1437
In short: as §1

NCI-H1648 = tested on: NCI-H1648
In short: as §1

NCI-H3122 = tested on: NCI-H3122
In short: as §1

UMC-11 = tested on: UMC-11
In short: as §1

Work on `C=C1C(=O)O[C@@H](CCCCCCCC)[C@@H]1C(=O)O` [C-75] + Nc1ncn([C@H]2C[C@H](O)[C@@H](CO)O2)c(=O)n1 [Decitabine] (partner 2 µM) yielded a relative viability (NCI-H727; first compound 0.08 µM) of 0.887, a relative viability (NCI-H727; first compound 0.253 µM) of 0.955 and a relative viability (NCI-H727; first compound 0.8 µM) of 0.807. The relative viability (NCI-H727; first compound 2.53 µM) was 0.767, the relative viability (NCI-H727; first compound 8 µM) was 0.873 and the relative viability (NCI-H358; first compound 0.08 µM) was 0.212. It also gave a relative viability (NCI-H358; first compound 0.253 µM) of 0.211, a relative viability (NCI-H358; first compound 0.8 µM) of 0.203 and a relative viability (NCI-H358; first compound 8 µM) of 0.18. For the same compound, the relative viability (NCI-H2405; first compound 0.08 µM) was 0.807, the relative viability (NCI-H2405; first compound 0.253 µM) was 0.423 and the relative viability (NCI-H2405; first compound 0.8 µM) was 0.714. For the same compound, the relative viability (NCI-H2405; first compound 2.53 µM) was 0.681, the relative viability (NCI-H2405; first compound 8 µM) was 0.789 and the relative viability (H3255; first compound 0.08 µM) was 0.535. The relative viability (H3255; first compound 0.253 µM) was 0.599, the relative viability (H3255; first compound 0.8 µM) was 0.74 and the relative viability (H3255; first compound 2.53 µM) was 0.585. The relative viability (H3255; first compound 8 µM) was 0.652, the relative viability (NCI-H23; first compound 0.08 µM) was 0.307 and the relative viability (NCI-H23; first compound 0.253 µM) was 0.334. The relative viability (NCI-H23; first compound 0.8 µM) was 0.308, the relative viability (NCI-H23; first compound 2.53 µM) was 0.249 and the relative viability (NCI-H23; first compound 8 µM) was 0.247. It also gave a relative viability (NCI-H1666; first compound 0.08 µM) of 0.741, a relative viability (NCI-H1666; first compound 0.253 µM) of 0.786 and a relative viability (NCI-H1666; first compound 0.8 µM) of 0.709. For the same compound, the relative viability (NCI-H1666; first compound 2.53 µM) was 0.638, the relative viability (NCI-H1666; first compound 8 µM) was 0.678 and the relative viability (NCI-H2347; first compound 0.08 µM) was 0.673. It also gave a relative viability (NCI-H2347; first compound 0.253 µM) of 0.626, a relative viability (NCI-H2347; first compound 0.8 µM) of 0.653 and a relative viability (NCI-H2347; first compound 2.53 µM) of 0.572. The relative viability (NCI-H2347; first compound 8 µM) was 0.659, the relative viability (NCI-H520; first compound 0.08 µM) was 0.488 and the relative viability (NCI-H520; first compound 0.253 µM) was 0.522. For the same compound, the relative viability (NCI-H520; first compound 0.8 µM) was 0.498, the relative viability (NCI-H520; first compound 2.53 µM) was 0.456 and the relative viability (NCI-H520; first compound 8 µM) was 0.356. The relative viability (NCI-H1437; first compound 0.08 µM) was 0.57, the relative viability (NCI-H1437; first compound 0.253 µM) was 0.586 and the relative viability (NCI-H1437; first compound 0.8 µM) was 0.577. For the same compound, the relative viability (NCI-H1437; first compound 8 µM) was 0.48, the relative viability (NCI-H1648; first compound 0.08 µM) was 0.487 and the relative viability (NCI-H1648; first compound 0.253 µM) was 0.671. For the same compound, the relative viability (NCI-H1648; first compound 0.8 µM) was 0.473, the relative viability (NCI-H1648; first compound 8 µM) was 0.492 and the relative viability (NCI-H3122; first compound 0.08 µM) was 0.423. The relative viability (NCI-H3122; first compound 0.253 µM) was 0.486, the relative viability (NCI-H3122; first compound 0.8 µM) was 0.355 and the relative viability (NCI-H3122; first compound 2.53 µM) was 0.346. The relative viability (NCI-H3122; first compound 8 µM) was 0.455, the relative viability (UMC-11; first compound 0.08 µM) was 0.696 and the relative viability (UMC-11; first compound 0.253 µM) was 0.642. The relative viability (UMC-11; first compound 0.8 µM) was 0.577 and the relative viability (UMC-11; first compound 2.53 µM) was 0.642.
